Key:
[1] = test system: Pgp mRNA; test: RT-PCR with 32P-ATP of Pgp mRNA levels in BE(2)-C neuroblastoma cell line; type: cell-based; parameters: reduction in Pgp mRNA levels, dose dependence: dose or concentration left out as unconfirmed; settings: BE(2)-C cells
Description: (§1) RT-PCR was performed and [^32P]ATP was incorporated into the PCR reaction. Radioactivity was measured following gel separation of PCR product.
as §1
Tests were performed in a BE(2)—C neuroblastoma cell line. This cell line was used to test the ability of (+)pentazocine to reduce levels of Pgp mRNA and corresponding protein expression in a dose-dependent manner. Pgp levels were tested at the mRNA level by reverse-transcription polymerase chain reaction (RT-PCR) in the presence of ^32P-ATP. Incorporation of the radiolabeled nucleotide was measured following electrophoresis of the PCR product.

[2] = test system: Pgp; test: Western blotting of Pgp protein levels in BE(2)-C cells (antibody C219); type: cell-based; settings: 10 μM (FIG. 3)
Description: FIG. 3. depicts Western Blot showing time-dependent reduction of Pgp expression in BE(2)—C cells following 10 μM (+)pentazocine treatment.
(§2) Protein levels were monitored by Western blotting, using monoclonal antibodies specific to Pgp (e.g., C219).

[3] = test system: Pgp; test: Western blotting of Pgp protein levels in ADX cells (antibody C219); type: cell-based, Chinese hamster; settings: 10 μM (FIG. 4)
Excerpt: as §2

[4] = test system: mdr-1 gene; settings: human neuroblastoma cells; cited from earlier work

Row | SMILES | decrease in Pgp mRNA ([1]; 1 μM) | time of maximal reduction in Pgp mRNA levels post-treatment ([1]; 10 μM (FIG. 1)) | reduction in Pgp mRNA levels, dose dependence ([1]; concentrations (FIG. 2)) | time of maximal decrease of Pgp protein levels [2] | time of maximal decrease of Pgp protein levels [3] | effect on expression of the mdr-1 gene [4]
1 | CC(C)=CCN1CCC2(C)c3cc(O)ccc3CC1C2C (single isomer, unassigned; (+)) [(+)pentazocine] | two-fold decrease | 12 to 18 h | dose-dependent | 12 to 18 h | 12 to 18 h | –
2 | Br.Br.CN(CCc1ccc(Cl)c(Cl)c1)[C@H]1CCCC[C@H]1N1CCCC1 [BD 737] | – | – | – | – | – | no significant effect

Reference: patent US20040224907A1, “Compositions and methods for reversal of drug resistance” (priority 2001, published 2004)
